# System: 200 kinds of cytokines
# Assay: Fold change of 200 cytokines in homogenized wound tissue
# Format: in vivo, Balb/c mice
# Details: mean; wound tissue
# Text: To quantify the physiological condition of the wound tissues, we measured the concentrations of 200 kinds of cytokines (Table. 1) from the supernatant of homogenized tissue solution. Cytokines are small secreted proteins released by cells and have specific effect on the interactions and communications between cells (25).
# To initiate the formation of a skin wound, five groups (n=5) of eight-week old female Balb/c mice (obtained from Harlan Laboratories, Indianapolis, Ind., USA) were disinfected with ethanol (70%) and shaved on the middle of the back (approximately a one-inch by one-inch square region around the injection site) one day prior to infection as described from a reported procedure (3). To prepare the bacterial inoculum, an aliquot of overnight culture of MRSA USA300 was transferred to fresh Tryptic soy broth and shaken at 37° C. until an OD600 value of ˜1.0 was achieved. The cells were centrifuged, washed once with PBS, re-centrifuged, and then re-suspended in PBS. Mice subsequently received an intradermal injection (40 μL) containing 2.40×10^9 CFU/mL MRSA USA300.
# One group of mice was left untreated (negative control). Each group of mice receiving a particular treatment regimen was housed separately in a ventilated cage with appropriate bedding, food, and water. […] Mice were treated twice daily (once every 12 hours) for three days, before they were humanely euthanized via CO2 asphyxiation 12 hours after the last dose was administered. The region around the skin wound was lightly swabbed with ethanol (70%) and excised. The tissue was subsequently homogenized in PBS. The homogenized tissue was then serially diluted in PBS before plating onto mannitol salt agar plates. Plates were incubated for at least 19 hours at 37° C. before viable MRSA CFU/mL were counted for each group. Outlier was removed based upon the Dixon Q Test.
smiles,measurement,value
CC(=O)O[C@H]1C[C@@]2(C)[C@@H](C[C@@H](O)[C@H]3[C@@]4(C)CC[C@@H](O)[C@@H](C)[C@@H]4CC[C@@]32C)/C1=C(\CCC=C(C)C)C(=O)O [fusidic acid],fold change of IL-1ra,0.3851
same,fold change of IL-2,0.0606
same,fold change of IL-2 Ra,0.1879
same,fold change of IL-3,−0.1398
same,fold change of IL-3 Rb,0.0789
same,fold change of IL-4,−0.0096
same,fold change of IL-5,−0.0953
same,fold change of IL-6,0.2682
same,fold change of IL-7,0.1116
same,fold change of IL-7 Ra,−0.7276
same,fold change of IL-9,0.1408
same,fold change of IL-10,−0.0351
same,fold change of IL-12p40,0.0324
same,fold change of IL-12p70,0.0029
same,fold change of IL-13,−0.5654
same,fold change of IL-15,−0.0506
same,fold change of IL-17,0.2684
same,fold change of IL-17B,−0.0513
same,fold change of IL-17B R,0.4884
same,fold change of IL-17E,−0.1800
same,fold change of IL-17F,0.2592
same,fold change of IL-20,0.0953
same,fold change of IL-21,−0.4052
same,fold change of IL-22,−0.0487
same,fold change of IL-23,0.2627
same,fold change of IL-28,−0.1588
same,fold change of IL-33,0.3416
same,fold change of JAM-A,0.3062
same,fold change of KC,0.0909
same,fold change of Kremen-1,0.2672
same,fold change of L-Selectin,−0.3559
same,fold change of LIX,−0.0313
same,fold change of LOX-1,0.0568
same,fold change of Leptin,−0.1199
same,fold change of Leptin R,0.1134
same,fold change of Limitin,−0.1844
same,fold change of Lipocalin-2,−0.0695
same,fold change of Lungkine,−0.0819
same,fold change of Lymphotactin,0.0908
same,fold change of MCP-1,0.0071
same,fold change of MCP-5,−0.0915
same,fold change of MCSF,−0.5503
same,fold change of MDC,−0.0764
same,fold change of MFG-E8,0.4647
same,fold change of MIG,0.5378
same,fold change of MIP-1a,−0.3165
same,fold change of MIP-1b,−0.5769
same,fold change of MIP-1g,0.0304
same,fold change of MIP-2,−0.0070
same,fold change of MIP-3a,0.3460
same,fold change of MIP-3b,0.0690
same,fold change of MMP-2,0.1026
same,fold change of MMP-3,−0.1230
same,fold change of MMP-10,0.3470
same,fold change of MadCAM-1,−0.0787
same,fold change of Marapsin,−0.1703
same,fold change of Neprilysin,0.5936
same,fold change of OPG,0.9914
same,fold change of OPN,0.8216
same,fold change of P-selectin,−0.2374
same,fold change of PDGF-AA,0.4578
same,fold change of PF4,−0.6256
same,fold change of Pentraxin 3,−0.6735
same,fold change of Persephin,0.5348
same,fold change of Pro-MMP-9,0.0197
same,fold change of Prolactin,0.4580
same,fold change of RAGE,0.1727
same,fold change of RANTES,−0.2545
same,fold change of Resistin,0.2752
same,fold change of SCF,0.1498
same,fold change of SDF-1a,0.1707
same,fold change of SLAM,0.1871
same,fold change of Shh-N,−0.0849
same,fold change of TACI,0.4640
same,fold change of TARC,0.3205
same,fold change of TCA-3,−0.1264
same,fold change of TCK-1,−0.0185
same,fold change of TECK,0.4529
same,fold change of TGFb1,0.0743
same,fold change of TNF RI,−0.1306
same,fold change of TNF RII,−0.2811
same,fold change of TNFα,−0.4306
same,fold change of TPO,0.2663
same,fold change of TRANCE,0.0310
same,fold change of TREM-1,0.0981
same,fold change of TROY,0.0517
same,fold change of TSLP,−0.0086
same,fold change of TWEAK,−0.0621
same,fold change of TWEAK R,−0.2341
same,fold change of TremL1,−0.0440
same,fold change of VCAM-1,−0.0283
same,fold change of VEGF,0.0403
same,fold change of VEGF R1,0.1580
same,fold change of VEGF R3,0.1061
same,fold change of VEGF-B,0.0230
same,fold change of VEGF-D,0.0367
same,fold change of bFGF,−0.4981
same,fold change of gp130,0.5867
same,fold change of sFRP-3,0.0607

# Reference: patent US20200306295A1, “METHOD AND DEVICE FOR ANNIHILATION OF Staphylococcus aureus” (priority 2017, published 2020)
